Laboratory results taken from PMC3124589 (Biochimica et biophysica acta, 2011).
Entries after “also recorded” stand apart in the source; their conditions may differ. Read-outs that look alike come from different tables or passages of the source.

How the values were obtained:
mtDAPDC [1] = target: T1, mtDAPDC (Mycobacterium tuberculosis, UniProt P9WIU7); assay: Inhibition assay for mtDAPDC, coupled carbon dioxide assay; assay type: biochemical
mtDAPDC [2] = target: T1, mtDAPDC; assay: HPLC assay for reaction of mtDAPDC with alternate substrates; assay type: biochemical; conditions: reaction 25 °C, 12–16 hours; OPA derivatization
S. cerevisiae ODC = S. cerevisiae ODC (Saccharomyces cerevisiae, UniProt P08432); assay: biochemical
yeast ODC = conditions: read-out: concentration necessary for 50% inhibition; cited from earlier work
mtDAPDC [3] = target: T1, mtDAPDC; assay: Steady-state coupled carbon dioxide assay, mtDAPDC; assay type: biochemical; conditions: for kcat / Km: errors in parentheses; for Km: meso-DAP value corrected for the 50% D,L-DAP present
[4] = D,L-DAP held at Km (400 μM), competitive inhibition assumed (eq 1)

T1 sequence (P9WIU7 whole entry, looked up): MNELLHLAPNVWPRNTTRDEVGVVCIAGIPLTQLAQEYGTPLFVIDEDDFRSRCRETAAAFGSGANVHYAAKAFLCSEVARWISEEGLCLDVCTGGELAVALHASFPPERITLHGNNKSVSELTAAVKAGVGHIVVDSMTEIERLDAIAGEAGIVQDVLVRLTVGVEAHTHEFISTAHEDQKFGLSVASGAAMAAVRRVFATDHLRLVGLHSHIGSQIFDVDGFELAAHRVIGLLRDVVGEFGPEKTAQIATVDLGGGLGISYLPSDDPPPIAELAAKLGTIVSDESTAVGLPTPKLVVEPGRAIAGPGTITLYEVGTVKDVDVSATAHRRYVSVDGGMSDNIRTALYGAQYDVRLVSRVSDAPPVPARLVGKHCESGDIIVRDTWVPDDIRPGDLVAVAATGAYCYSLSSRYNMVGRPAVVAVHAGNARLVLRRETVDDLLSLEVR
S. cerevisiae ODC, sequence (P08432 whole entry): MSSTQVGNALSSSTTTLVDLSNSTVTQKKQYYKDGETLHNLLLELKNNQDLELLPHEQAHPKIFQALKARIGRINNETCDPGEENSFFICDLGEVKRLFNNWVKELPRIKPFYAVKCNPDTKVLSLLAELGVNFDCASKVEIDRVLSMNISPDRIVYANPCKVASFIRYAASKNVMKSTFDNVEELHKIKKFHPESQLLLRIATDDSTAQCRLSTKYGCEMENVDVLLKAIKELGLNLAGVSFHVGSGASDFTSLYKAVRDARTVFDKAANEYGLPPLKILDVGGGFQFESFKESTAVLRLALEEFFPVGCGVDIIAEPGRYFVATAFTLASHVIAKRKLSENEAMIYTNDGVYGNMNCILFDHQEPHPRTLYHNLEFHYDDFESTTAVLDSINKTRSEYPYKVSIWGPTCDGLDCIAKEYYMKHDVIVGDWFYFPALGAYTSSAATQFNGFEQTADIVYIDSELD

Row | Compound | Ki (mtDAPDC [1]; [4]) [mM] | decarboxylation detected by HPLC (mtDAPDC [2]) | kcat (mtDAPDC [3]) | Km (mtDAPDC [3]) [mM] | other results
1 | NC(CCCC(N)C(=O)O)C(=O)O [L,L-DAP] | 1.6 | no detectable amounts of their decarboxylation products; also recorded: not decarboxylated | – | – | binding weaker than D,L-DAP (mtDAPDC [1]; Ki compared with Km of D,L-DAP): ~ 4 fold
2 | NCCCCN [putrescine] | – | – | – | – | Ki (S. cerevisiae ODC): 0.25 ± 0.045 mM; IC50 (yeast ODC): 0.1 mM
3 | NCCCC[C@@H](N)C(=O)O [D-lysine] | 26 | decarboxylated | – | – | –
4 | N[C@@H](CCC[C@H](N)C(=O)O)C(=O)O [D,L-DAP, D,L-diaminopimelate] | – | – | 7.1 (0.1) s^−1 | 0.43 | –
5 | N[C@H](CCC[C@@H](N)C(=O)O)C(=O)O [D,D-DAP] | – | decarboxylated | 1.8 (0.3) s^−1 | 17 | inhibition of the D,L-DAP reaction (mtDAPDC [1]; at concentrations of 6 mM (data not shown)): no detectable inhibition; kcat less than with the natural substrate (mtDAPDC [3]; relative to D,L-DAP): 4 fold; kcat/KM lower than D,L-DAP (mtDAPDC [3]; relative to D,L-DAP): ~ 100 fold
6 | NCCCC[C@H](N)C(=O)O [L-lysine] | – | no detectable amounts of their decarboxylation products | – | – | Ki (mtDAPDC [1]): 1.8 mM
